Measurements: the NIST ThermoML archive (doi:10.1021/je025538u)

What was measured:
[1] = 101.33 kPa, Liquid
[2] = cn = amount concentration of the nth substance listed, in mol/dm3; conditions: 101.3 kPa, Liquid

CCC(C)O (stereo not drawn) [butan-2-ol]
[1]
Conditions	mass density [kg/m3]	viscosity [mPa·s]
293.15 K	806.6	3.663
303.15 K	799.3	2.527
313.15 K	792.2	1.801
333.15 K	778	1.025

CCCCCCCCCCCC(=O)O [dodecanoic acid] + CCC(C)O
[2]
Conditions	mass density, 293.15 K [kg/m3]	mass density, 303.15 K [kg/m3]	mass density, 313.15 K [kg/m3]	mass density, 333.15 K [kg/m3]	viscosity, 293.15 K [mPa·s]	viscosity, 303.15 K [mPa·s]	viscosity, 313.15 K [mPa·s]	viscosity, 333.15 K [mPa·s]
c1 = 0.0103	806.38	798.71	791.02	778.39	3.58	2.547	1.81	1.05
c1 = 0.05	807.27	800.23	793.39	779.62	3.665	2.548	1.818	1.04
c1 = 0.1003	807.29	800.56	794.11	780.76	3.7	2.573	1.851	1.07
c1 = 0.15	808.85	801.14	794.51	782	3.688	2.585	1.865	1.08
c1 = 0.2001	808.76	801.85	794.64	782.9	3.744	2.624	1.877	1.1
c1 = 0.35	812.86	805.19	797.47	785.3	3.841	2.704	1.951	1.15

CCCCCCCCCCCCCCCC(=O)O [hexadecanoic acid] + CCC(C)O
[2]
Conditions	mass density, 293.15 K [kg/m3]	mass density, 303.15 K [kg/m3]	mass density, 313.15 K [kg/m3]	mass density, 333.15 K [kg/m3]	viscosity, 293.15 K [mPa·s]	viscosity, 303.15 K [mPa·s]	viscosity, 313.15 K [mPa·s]	viscosity, 333.15 K [mPa·s]
c1 = 0.01	807.66	799.68	792.63	–	3.53	2.464	1.751	–
c1 = 0.05	807.67	800.09	792.74	782.3	3.616	2.499	1.789	1.09
c1 = 0.1	809.21	801.34	794.66	782.9	3.613	2.512	1.808	1.08
c1 = 0.1501	810.16	802.89	795.01	783.19	3.7	2.585	1.85	1.13
c1 = 0.2001	810.6	802.96	795.11	783.51	3.828	2.665	1.921	1.14
c1 = 0.3501	813.04	806.24	799.34	787.5	4.056	2.834	2.045	1.27

CCCCCCCCCCCCCCCCCC(=O)O [octadecanoic acid] + CCC(C)O
[2]
Conditions	mass density, 293.15 K [kg/m3]	mass density, 303.15 K [kg/m3]	mass density, 313.15 K [kg/m3]	mass density, 333.15 K [kg/m3]	viscosity, 293.15 K [mPa·s]	viscosity, 303.15 K [mPa·s]	viscosity, 313.15 K [mPa·s]	viscosity, 333.15 K [mPa·s]
c1 = 0.01	806.45	798.83	792.46	–	3.611	2.499	1.766	–
c1 = 0.05	806.9	799.7	792.65	782.79	3.679	2.531	1.808	1.09
c1 = 0.1	813.95	806.09	796.45	783.92	3.795	2.466	1.79	1.1
c1 = 0.15	810.78	803.5	796.91	784.23	3.785	2.627	1.886	1.16
c1 = 0.2	811.62	804.54	797.76	785.41	3.799	2.584	1.881	1.16
c1 = 0.3501	814.68	806.92	800.5	788.89	4.177	2.919	2.017	1.36
